From US5200343A, “Method for microbial dehalogenation of haloaliphatic compounds using a sulfate reducing bacteria, desulfomonile tiedjei” (Board of Trustees operating Michigan State University, priority 1991, dated 1993)
Like-named read-outs stand apart in the source and are kept apart here.

Experiments:
[1] = tested on: Desulfomonile tiedjei cells; assay: 3-chlorobenzoate dechlorination by starved stationary phase induced cells with or without pyruvate (Table 3); type: cell-based
Description: Cultures were grown using strict anaerobic technique in a synthetic minimal medium amended with vitamins (DeWeerd, et al, Arch. of Microbiol. 154, 23-30 (1990)), pyruvate at 20 mM, and reduced with 1 mM cysteine and 0.1 mM Na2 S2 O4. The concentration of nicotinamide and 1,4-naphthoquinone were 500 μgl^-1 and 200 μgl^-1, respectively. Thiamine, hemin and lipoic acid were used at 50 μg/liter. To induce 3-chlorobenzoate dechlorination activity, 3-fluorobenzoate was added to 0.1 mM. The complete medium was inoculated with a 1% transfer from homologous medium (without fluorobenzoate). […]
Cultures were harvested by centrifugation and resuspended in 20 to 40% of the initial volume in a cold anaerobic assay buffer normally consisting of 50 mM NaCl, 10 mM sodium pyruvate, 10 mM HEPES (N-2[hydroxyethylP]piperazine-N'-[2-ethanesulfonic acid], hemisodium salt Sigma);, 0.00001% resazurin and reduced with 1 mM cysteine-HCl and 1 mM titanium (III) citrate. […] The assays were terminated at the indicated times by transferring the serum bottles to an ice water bath, where they were stored until analyzed. Protein concentrations were determined by a modification of the Lowry method (Hanson, R. S. and J. A. Phillips, In P. Gerhardt (ed.) Manual of methods for general microbiology. American Society for Microbiology, Washington, D. C. p. 328-364 (1981)). […]

[2] = tested on: 3-Chlorobenzoate Dechlorination Activity; assay: Induction of 3-chlorobenzoate dechlorination activity by growth with 3-chlorobenzoate, analogues, or chloro- and iodobenzoates (Tables 4, 5); type: cell-based, Desulfomonile tiedjei
Description: Table 4. Cultures were grown in the presence of 3-chlorobenzoate or a 3-chlorobenzoate analogue substituted at the 1- or 3- position with the indicated functional groups. After several generations the culture were concentrated, washed and resuspended in anaerobic buffered salts containing 1 mM 3-chlorobenzoate and 10 mM pyruvate (as electron donor). […] After two hours samples were taken for benzoate analysis by HPLC. Values presented are the average of duplicate or triplicate cultures ± sample standard deviation.
Table 5. Chloro- and iodobenzoates were tested as inducers of 3-chlorobenzoate dehalogenation activity as described in the legend to Table 4. All compounds were initially at 500 μM; the 3-halo compounds were amended during growth as they were dehalogenated. Values presented are the average of duplicate or triplicate cultures± sample standard deviation.

[3] = tested on: Desulfomonile tiedjei cells; assay: PCE and TCE dechlorination by resuspended cells induced with 3-fluorobenzoate versus non-induced cells (Table 1, FIG. 1); type: cell-based; settings: for Mole % recovered, PCE / Mole % recovered, TCE / Mole % recovered, cis-DCE / Total Cl Removed: 2 μg/ml substrate, 37° C., 2 hr; for Mole % recovered, PCE / Mole % recovered, TCE / Mole % recovered, cis-DCE: average of duplicate vials; for Total Cl Removed: calculated from input concentration and Mole % recovered
Description: (§1) Cultures were grown using strict anaerobic technique in a synthetic minimal medium amended with vitamins (DeWeerd, et al, Arch. of Microbiol. 154, 23-30 (1990)), pyruvate at 20 mM, and reduced with 1 mM cysteine and 0.1 mM Na2 S2 O4. The concentration of nicotinamide and 1,4-naphthoquinone were 500 μgl^-1 and 200 μgl^-1, respectively. Thiamine, hemin and lipoic acid were used at 50 μg/liter. To induce 3-chlorobenzoate dechlorination activity, 3-fluorobenzoate was added to 0.1 mM. The complete medium was inoculated with a 1% transfer from homologous medium (without fluorobenzoate). Cultures were grown at 37° C. in the dark for about 14 days for fresh cells or 28 days for starved stationary phase cells.
(§2) Cultures were harvested by centrifugation and resuspended in 20 to 40% of the initial volume in a cold anaerobic assay buffer normally consisting of 50 mM NaCl, 10 mM sodium pyruvate, 10 mM HEPES (N-2[hydroxyethylP]piperazine-N'-[2-ethanesulfonic acid], hemisodium salt Sigma);, 0.00001% resazurin and reduced with 1 mM cysteine-HCl and 1 mM titanium (III) citrate. Resuspended cells were used to completely fill N2 sparged 10 ml serum bottles after which chlorinated ethylenes were added from a 0.5 or 1 mg/ml stock in methanol for PCE and TCE respectively. The vials were immediately sealed with Teflon lined rubber septa and aluminum crimp seals, leaving no headspace. The assays were commenced by transferring the serum bottles to a 37° C. water bath. The assays were terminated at the indicated times by transferring the serum bottles to an ice water bath, where they were stored until analyzed. Protein concentrations were determined by a modification of the Lowry method (Hanson, R. S. and J. A. Phillips, In P. Gerhardt (ed.) Manual of methods for general microbiology. American Society for Microbiology, Washington, D. C. p. 328-364 (1981)).
(§3) Chlorinated ethylenes were monitored with a Tekmar purge and trap unit (model 4000) connected to a Hewlett-Packard GC (Sunnyville, Calif.) equipped with an HP-5 cappillary column (30 m×0.53 mm×2.6 μm film thickness) and flame ionization detector. Samples (5 ml) were purged onto Tenax TA (Supelco, Bellefonte, Pa.) adsorbent with helium (30 ml/min for 16 min.), desorbed (180° C. for 4 min.), and separated using helium as a carrier at 6 ml/min. The temperature program was 30° C. for 8 min, increasing to 200° C. at 4° C./min and followed by an isothermal period of 5 min. The injection and detector temperatures were 220° C. and 300° C., respectively. PCE and its dechlorinated products were identified by comparison with authentic standards.
To further examine the transformation of both PCE and TCE and to determine if dechlorination of TCE also requires induction, a similar experiment was conducted to measure the initial transformation rates of PCE and TCE (Table 1.). […] The extent of transformation of PCE to TCE ([…] in 2H) was considerably faster than the rate of transformation of TCE to DCE ([…] in 2h), as expected from the redox potentials of these reactions (Vogel, T. M., et al., Environ. Sci. Technol. 21:722-736 (1987)) and results from mixed culture systems (Bouwer, E. J., and P. L. McCarty, Appl. Environ. Microbiol. 45:1286-1294 (1983)). The rate of transformation of PCE and TCE were much greater for the induced cultures than for the non-induced cultures.
^a suspensions were amended with PCE or TCE to a final concentration
of 2 μg/ml and incubated at 37° C. for 2 hr. Suspensions of
induced and uninduced cells contained 149 and 153 μg protein per ml
^b Data are presented as the average of duplicate vials with the
sample standard deviation in parenthesis.
^c Calculated from the input concentration of chlorinated ethylenes
and the Mole % of recovered material.

[4] = tested on: Desulfomonile tiedjei cells; assay: Effect of different medium reductants and sterilant on PCE dechlorination by induced cells (Table 2); type: cell-based; settings: PCE 1.66 μg/ml, 37° C., 2 hours
Description: as §1, with “The” for “Cultures were grown using strict anaerobic technique in a synthetic minimal medium amended with vitamins (DeWeerd, et al, Arch. of Microbiol. 154, 23-30 (1990)), pyruvate at 20 mM, and reduced with 1 mM cysteine and 0.1 mM Na2 S2 O4. The”
as §2, with “analyzed.” for “analyzed. Protein concentrations were determined by a modification of the Lowry method (Hanson, R. S. and J. A. Phillips, In P. Gerhardt (ed.) Manual of methods for general microbiology. American Society for Microbiology, Washington, D. C. p. 328-364 (1981)).”
as §3
Data are the average of duplicate vials and […]

[5] = tested on: Desulfomonile tiedjei cells; assay: PCE dechlorination by starved stationary phase induced cells with or without pyruvate (Table 3); type: cell-based; settings: for Mole % recovered, PCE / Mole % recovered, TCE / Mole % recovered, cis-DCE / Mole % recovered, trans-DCE / Total Cl Removed: PCE 1.66 μg/ml, 37° C., 2 hours
Description: as §1, §2, §3
^a Starved stationary phase induced cultures were resuspended at a
concentration of 521 μg protein per ml in buffer without pyruvate,
amended with PCE to a final concentration of 1.66 μg/ml and incubated
at 37° C. for 2 hours. Data are the average of duplicate vials and
^b 0.1 mMole sodium pyruvate was added to duplicate vials before
addition of cell suspensions to give a final concentration of ca. 10 mM

[6] = tested on: Desulfomonile tiedjei; settings: cited from earlier work

Structure (SMILES): O=C(O)c1cccc(Cl)c1 [3-chlorobenzoate]
- 3-chlorobenzoate dechlorination in absence of pyruvate relative to presence of pyruvate [1]: about 12%
- Induction Activity (3-chlorobenzoate dechlorination activity) ([2]; Table 4, inducers at 500 μM except 3-formylbenzoate 100 μM and 3-chlorobenzoate (amended at intervals), assay 1 mM 3-chlorobenzoate, two hours): 672 ± 8 nMol/hr/mg protein
- Induction Activity (3-chlorobenzoate dechlorination activity) ([2]; Table 5, inducers initially 500 μM, 3-halo compounds amended during growth): 672 ± 8 nMol/hr/mg protein

Structure (SMILES): ClC(Cl)=C(Cl)Cl [PCE, tetrachloroethylene]
- product formation from PCE or TCE ([3]; Only cultures pre-induced with 3-fluorobenzoate): measurable product formation
- transformation of PCE to TCE and cis-DCE (FIG. 1) ([3]; cells grown with 0.1 mM 3-fluorobenzoate): Rapid transformation
- Mole % recovered, PCE ([3]; induced (+)): 45.7 Mole %
- Mole % recovered, TCE ([3]; induced (+)): 54.3 Mole %
- Mole % recovered, cis-DCE ([3]; induced (+)): 0.0 Mole %
- Total Cl Removed ([3]; induced (+)): 43.9 μmol/g prot. in 2 h
- formation of trans-DCE from PCE ([3]; induced cells, longer time course): formation of small amounts of trans-DCE
- Mole % recovered, PCE ([3]; non-induced (-)): 100.0 Mole %
- Mole % recovered, TCE ([3]; non-induced (-)): 0.0 Mole %
- Mole % recovered, cis-DCE ([3]; non-induced (-)): 0.0 Mole %
- Total Cl Removed ([3]; non-induced (-)): 0.0 μmol/g prot. in 2 h
- extent of transformation of PCE to TCE ([3]; pre-induced with 3-fluorobenzoate): 43.8 mol g protein ^-1 in 2H
- dechlorination of PCE (FIG. 1) ([3]; uninduced cells): no dechlorination was detected
- Mole % recovered, PCE ([4]; Formaldehyde + (0.2%)): 95.0 Mole %
- Mole % recovered, TCE ([4]; Formaldehyde + (0.2%)): 5.0 Mole %
- Mole % recovered, cis-DCE ([4]; Formaldehyde + (0.2%)): 0.0 Mole %
- Mole % recovered, trans-DCE ([4]; Formaldehyde + (0.2%)): 0.0 Mole %
- Total Cl Removed ([4]; Formaldehyde + (0.2%)): 1.0 μmol/g prot. in 2 h
- Mole % recovered, PCE ([4]; Formaldehyde -): 0.0 Mole %
- Mole % recovered, TCE ([4]; Formaldehyde -): 26.4 Mole %
- Mole % recovered, cis-DCE ([4]; Formaldehyde -): 69.4 Mole %
- Mole % recovered, trans-DCE ([4]; Formaldehyde -): 4.2 Mole %
- Total Cl Removed ([4]; Formaldehyde -): 34.1 μmol/g prot. in 2 h
- Mole % recovered, PCE ([4]; reductant Na2 S (1 mM)): 6.3 Mole %
- Mole % recovered, TCE ([4]; reductant Na2 S (1 mM)): 18.6 Mole %
- Mole % recovered, cis-DCE ([4]; reductant Na2 S (1 mM)): 70.7 Mole %
- Mole % recovered, trans-DCE ([4]; reductant Na2 S (1 mM)): 4.4 Mole %
- Total Cl Removed ([4]; reductant Na2 S (1 mM)): 45.4 μmol/g prot. in 2 h
- Mole % recovered, PCE ([4]; reductant TiCit): 0.0 Mole %
- Mole % recovered, TCE ([4]; reductant TiCit): 9.4 Mole %
- Mole % recovered, cis-DCE ([4]; reductant TiCit): 85.8 Mole %
- Mole % recovered, trans-DCE ([4]; reductant TiCit): 4.7 Mole %
- Total Cl Removed ([4]; reductant TiCit): 50.0 μmol/g prot. in 2 h
- Mole % recovered, PCE ([5]; pyruvate + (ca. 10 mM)): 2.1 Mole %
- Mole % recovered, TCE ([5]; pyruvate + (ca. 10 mM)): 44.1 Mole %
- Mole % recovered, cis-DCE ([5]; pyruvate + (ca. 10 mM)): 50.3 Mole %
- Mole % recovered, trans-DCE ([5]; pyruvate + (ca. 10 mM)): 3.5 Mole %
- Total Cl Removed ([5]; pyruvate + (ca. 10 mM)): 29.1 (0.8) μmol/g prot. in 2 h
- Mole % recovered, PCE ([5]; pyruvate -): 78.6 Mole %
- Mole % recovered, TCE ([5]; pyruvate -): 21.4 Mole %
- Mole % recovered, cis-DCE ([5]; pyruvate -): 0.0 Mole %
- Mole % recovered, trans-DCE ([5]; pyruvate -): 0.0 Mole %
- Total Cl Removed ([5]; pyruvate -): 4.1 (0.3) μmol/g prot. in 2 h
- PCE dechlorination in absence of pyruvate relative to presence of pyruvate ([5]; starved stationary phase cells): about 14%
- Dechlorination of PCE by D. tiedjei ([6]; Fathepure et al.): 2.34 μmolg protein^-1 day^-1
- Dechlorination of PCE by D. tiedjei ([6]; Suflita et al.): 4 μmol/l in five (5) months
